In PMC12300041, “Tricyclic Isatin Derivatives as Anti-Inflammatory Compounds with High Kinase Binding Affinity” (Molecules, 2025):

Tests used:
Assay in all cases: KINOMEscan
Type in all cases: binding
MERTK = target: T1, MERTK (Homo sapiens, UniProt Q12866)
T1 construct: purchased Eurofins DiscoverX KINOMEscan
Outline: (§1)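 Dissociation constants derive from a 12-point, half-log compound titration (highest 33 μM). Each binding reaction ran 1 h at room temperature before qPCR quantification of kinase captured on an immobilized affinity ligand.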

LRRK2 (G2019S) = target: T2, LRRK2 (G2019S) (Homo sapiens, UniProt Q5S007, G2019S)
T2 construct: purchased Eurofins DiscoverX KINOMEscan
Outline: as §1

EGFR (T790M) = target: T3, EGFR (T790M) (Homo sapiens, UniProt P00533, T790M)
T3 construct: purchased Eurofins DiscoverX KINOMEscan
Outline: (§2)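 Quantitative PCR measured kinase retained on an immobilized affinity ligand, i.e. kinase not bound by test compound, after 1 h binding at room temperature. Kd came from 12 half-log concentrations up to 33 μM.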

RIPK1 = target: T4, RIPK1 (Homo sapiens, UniProt Q13546)
T4 construct: purchased Eurofins DiscoverX KINOMEscan
Outline: as §2

GRK7 = target: T5, GRK7 (Homo sapiens, UniProt Q8WTQ7)
T5 construct: purchased Eurofins DiscoverX KINOMEscan
Outline: as §1

BLK = target: T6, BLK (Homo sapiens, UniProt P51451)
T6 construct: purchased Eurofins DiscoverX KINOMEscan
Outline: as §1

MET = target: T7, MET (Homo sapiens, UniProt P08581)
T7 construct: purchased Eurofins DiscoverX KINOMEscan
Outline: as §1

CAMK1G = target: T8, CAMK1G (Homo sapiens, UniProt Q96NX5)
T8 construct: purchased Eurofins DiscoverX KINOMEscan
Outline: as §1

LATS2 = target: T9, LATS2 (Homo sapiens, UniProt Q9NRM7)
T9 construct: purchased Eurofins DiscoverX KINOMEscan
Outline: as §1

PRKD2 = target: T10, PRKD2 (Homo sapiens, UniProt Q9BZL6)
T10 construct: purchased Eurofins DiscoverX KINOMEscan
Outline: as §1

BRAF (V600E) = target: T11, BRAF (V600E) (Homo sapiens, UniProt P15056, V600E)
T11 construct: purchased Eurofins DiscoverX KINOMEscan
Outline: as §1

YSK1 = target: T12, YSK1 (Homo sapiens, UniProt O00506)
T12 construct: purchased Eurofins DiscoverX KINOMEscan
Outline: as §1

CDC2L1 = target: T13, CDC2L1 (Homo sapiens, UniProt P21127)
T13 construct: purchased Eurofins DiscoverX KINOMEscan
Outline: as §1

PKN1 = target: T14, PKN1 (Homo sapiens, UniProt Q16512)
T14 construct: purchased Eurofins DiscoverX KINOMEscan
Outline: as §1

PKAC-α = target: T15, PKAC-α (Homo sapiens, UniProt P17612)
T15 construct: purchased Eurofins DiscoverX KINOMEscan
Outline: as §1

CDK4 = target: T16, CDK4 (Homo sapiens, UniProt P11802)
T16 construct: purchased Eurofins DiscoverX KINOMEscan
Outline: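 Kd values rest on a 12-point half-log titration, highest concentration 33 μM, with 1 h room-temperature binding and qPCR read-out of affinity-captured free kinase.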

INSR = target: T17, INSR (Homo sapiens, UniProt P06213)
T17 construct: purchased Eurofins DiscoverX KINOMEscan
Outline: as §2

PRKCD = target: T18, PRKCD (Homo sapiens, UniProt Q05655)
T18 construct: purchased Eurofins DiscoverX KINOMEscan
Outline: as §1

DRAK2 = target: T19, DRAK2 (Homo sapiens, UniProt O94768)
T19 construct: purchased Eurofins DiscoverX KINOMEscan
Outline: as §1

[1] = target: T20, RSK4 (Kin. Dom.2-C-term.) (Homo sapiens, UniProt Q9UK32)
T20 construct: RSK4 (Kin. Dom.2-C-term.); purchased Eurofins DiscoverX KINOMEscan
Outline: as §1

EGFR (L858R, T790M) = target: T21, EGFR (L858R, T790M) (Homo sapiens, UniProt P00533, L858R/T790M)
T21 construct: purchased Eurofins DiscoverX KINOMEscan
Outline: as §2

MAP4K3 = target: T22, MAP4K3 (Homo sapiens, UniProt Q8IVH8)
T22 construct: purchased Eurofins DiscoverX KINOMEscan
Outline: as §1

CIT = target: T23, CIT (Homo sapiens, UniProt O14578)
T23 construct: purchased Eurofins DiscoverX KINOMEscan
Outline: as §1

PRKD3 = target: T24, PRKD3 (Homo sapiens, UniProt O94806)
T24 construct: purchased Eurofins DiscoverX KINOMEscan
Outline: as §1

MELK = target: T25, MELK (Homo sapiens, UniProt Q14680)
T25 construct: purchased Eurofins DiscoverX KINOMEscan
Outline: as §1

TAOK1 = target: T26, TAOK1 (Homo sapiens, UniProt Q7L7X3)
T26 construct: purchased Eurofins DiscoverX KINOMEscan
Outline: as §1

PIP5K2B = target: T27, PIP5K2B (Homo sapiens, UniProt P78356)
T27 construct: purchased Eurofins DiscoverX KINOMEscan
Outline: as §2

RIPK5 = target: T28, RIPK5 (Homo sapiens, UniProt Q6XUX3)
T28 construct: purchased Eurofins DiscoverX KINOMEscan
Outline: as §1

PFTK1 = target: T29, PFTK1 (Homo sapiens, UniProt O94921)
T29 construct: purchased Eurofins DiscoverX KINOMEscan
Outline: as §2

[2] = target: T30, RSK2 (Kin. Dom.2-C-term.) (Homo sapiens, UniProt P51812)
T30 construct: RSK2 (Kin. Dom.2-C-term.); purchased Eurofins DiscoverX KINOMEscan
Outline: as §1

FLT4 = target: T31, FLT4 (Homo sapiens, UniProt P35916)
T31 construct: purchased Eurofins DiscoverX KINOMEscan
Outline: as §1

MAP4K4 = target: T32, MAP4K4 (Homo sapiens, UniProt O95819)
T32 construct: purchased Eurofins DiscoverX KINOMEscan
Outline: as §1

STK39 = target: T33, STK39 (Homo sapiens, UniProt Q9UEW8)
T33 construct: purchased Eurofins DiscoverX KINOMEscan
Outline: as §1

AXL = target: T34, AXL (Homo sapiens, UniProt P30530)
T34 construct: purchased Eurofins DiscoverX KINOMEscan
Outline: as §2

DCAMKL3 = target: T35, DCAMKL3 (Homo sapiens, UniProt Q9C098)
T35 construct: purchased Eurofins DiscoverX KINOMEscan
Outline: as §1

JAK3 (JH1domain-cat.) = target: T36, JAK3 (JH1domain-cat.) (Homo sapiens, UniProt P52333)
T36 construct: JAK3 (JH1domain-cat.); purchased Eurofins DiscoverX KINOMEscan
Outline: as §1

CSF1R-autoinhibited = target: T37, CSF1R-autoinhibited (Homo sapiens, UniProt P07333)
T37 construct: purchased Eurofins DiscoverX KINOMEscan
Outline: as §1

TIE1 = target: T38, TIE1 (Homo sapiens, UniProt P35590)
T38 construct: purchased Eurofins DiscoverX KINOMEscan
Outline: as §1

T5 sequence (Q8WTQ7 whole entry): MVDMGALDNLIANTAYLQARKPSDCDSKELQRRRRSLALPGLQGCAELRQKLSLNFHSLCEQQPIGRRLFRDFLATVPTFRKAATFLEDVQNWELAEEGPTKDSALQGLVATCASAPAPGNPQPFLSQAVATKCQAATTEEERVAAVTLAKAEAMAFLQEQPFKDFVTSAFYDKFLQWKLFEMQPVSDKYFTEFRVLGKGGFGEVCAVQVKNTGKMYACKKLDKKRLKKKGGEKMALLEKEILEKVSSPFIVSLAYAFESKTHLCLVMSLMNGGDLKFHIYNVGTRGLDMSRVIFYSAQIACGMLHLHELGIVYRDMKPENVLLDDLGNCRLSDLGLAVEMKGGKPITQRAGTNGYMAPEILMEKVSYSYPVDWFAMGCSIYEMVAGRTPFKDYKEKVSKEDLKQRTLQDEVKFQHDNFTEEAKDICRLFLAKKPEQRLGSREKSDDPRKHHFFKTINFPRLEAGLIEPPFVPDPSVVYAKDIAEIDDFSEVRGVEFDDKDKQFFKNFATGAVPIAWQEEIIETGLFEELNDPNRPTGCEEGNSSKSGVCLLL
T20 sequence (Q9UK32 401-745 limits assumed): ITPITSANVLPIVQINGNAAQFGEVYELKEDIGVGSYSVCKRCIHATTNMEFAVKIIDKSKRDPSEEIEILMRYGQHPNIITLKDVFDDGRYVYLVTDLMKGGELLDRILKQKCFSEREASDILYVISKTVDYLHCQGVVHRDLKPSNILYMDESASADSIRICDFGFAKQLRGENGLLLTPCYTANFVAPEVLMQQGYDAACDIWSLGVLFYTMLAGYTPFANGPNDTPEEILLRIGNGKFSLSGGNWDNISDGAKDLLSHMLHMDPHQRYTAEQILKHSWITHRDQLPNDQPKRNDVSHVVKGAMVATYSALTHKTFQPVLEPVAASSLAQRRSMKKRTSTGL
T31 sequence (P35916 25-1363): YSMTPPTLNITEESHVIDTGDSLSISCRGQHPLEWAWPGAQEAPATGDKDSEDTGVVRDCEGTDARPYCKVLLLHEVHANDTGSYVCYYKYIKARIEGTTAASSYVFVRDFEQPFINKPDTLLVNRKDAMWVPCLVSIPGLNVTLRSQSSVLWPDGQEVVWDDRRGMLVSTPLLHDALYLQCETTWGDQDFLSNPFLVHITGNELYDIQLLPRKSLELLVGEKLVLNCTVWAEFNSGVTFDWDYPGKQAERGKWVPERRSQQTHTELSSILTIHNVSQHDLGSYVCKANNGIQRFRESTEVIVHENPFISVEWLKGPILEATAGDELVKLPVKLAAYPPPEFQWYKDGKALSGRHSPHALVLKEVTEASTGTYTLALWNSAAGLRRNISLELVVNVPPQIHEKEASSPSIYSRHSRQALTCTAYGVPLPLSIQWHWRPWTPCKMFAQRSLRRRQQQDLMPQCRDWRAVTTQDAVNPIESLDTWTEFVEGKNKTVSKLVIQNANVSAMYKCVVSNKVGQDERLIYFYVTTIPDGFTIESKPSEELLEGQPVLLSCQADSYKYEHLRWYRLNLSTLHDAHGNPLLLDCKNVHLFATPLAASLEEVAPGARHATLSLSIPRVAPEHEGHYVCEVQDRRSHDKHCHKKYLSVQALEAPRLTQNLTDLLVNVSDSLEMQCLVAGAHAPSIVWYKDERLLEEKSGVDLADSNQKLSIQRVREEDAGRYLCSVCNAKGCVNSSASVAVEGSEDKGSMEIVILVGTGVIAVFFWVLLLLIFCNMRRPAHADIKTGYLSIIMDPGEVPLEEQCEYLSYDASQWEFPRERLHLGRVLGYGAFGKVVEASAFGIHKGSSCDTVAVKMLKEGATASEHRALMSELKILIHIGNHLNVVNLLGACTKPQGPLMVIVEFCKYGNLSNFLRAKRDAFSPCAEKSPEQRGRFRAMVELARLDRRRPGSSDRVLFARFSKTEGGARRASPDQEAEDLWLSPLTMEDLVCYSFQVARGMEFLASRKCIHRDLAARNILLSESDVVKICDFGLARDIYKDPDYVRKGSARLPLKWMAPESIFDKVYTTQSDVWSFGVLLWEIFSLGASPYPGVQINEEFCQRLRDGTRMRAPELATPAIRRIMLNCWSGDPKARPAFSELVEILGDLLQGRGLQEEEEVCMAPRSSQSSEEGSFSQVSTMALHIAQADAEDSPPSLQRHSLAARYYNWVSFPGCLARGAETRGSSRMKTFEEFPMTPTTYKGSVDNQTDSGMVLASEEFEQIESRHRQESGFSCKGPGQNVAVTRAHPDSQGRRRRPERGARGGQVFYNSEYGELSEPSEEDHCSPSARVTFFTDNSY
T14 sequence (Q16512 whole entry): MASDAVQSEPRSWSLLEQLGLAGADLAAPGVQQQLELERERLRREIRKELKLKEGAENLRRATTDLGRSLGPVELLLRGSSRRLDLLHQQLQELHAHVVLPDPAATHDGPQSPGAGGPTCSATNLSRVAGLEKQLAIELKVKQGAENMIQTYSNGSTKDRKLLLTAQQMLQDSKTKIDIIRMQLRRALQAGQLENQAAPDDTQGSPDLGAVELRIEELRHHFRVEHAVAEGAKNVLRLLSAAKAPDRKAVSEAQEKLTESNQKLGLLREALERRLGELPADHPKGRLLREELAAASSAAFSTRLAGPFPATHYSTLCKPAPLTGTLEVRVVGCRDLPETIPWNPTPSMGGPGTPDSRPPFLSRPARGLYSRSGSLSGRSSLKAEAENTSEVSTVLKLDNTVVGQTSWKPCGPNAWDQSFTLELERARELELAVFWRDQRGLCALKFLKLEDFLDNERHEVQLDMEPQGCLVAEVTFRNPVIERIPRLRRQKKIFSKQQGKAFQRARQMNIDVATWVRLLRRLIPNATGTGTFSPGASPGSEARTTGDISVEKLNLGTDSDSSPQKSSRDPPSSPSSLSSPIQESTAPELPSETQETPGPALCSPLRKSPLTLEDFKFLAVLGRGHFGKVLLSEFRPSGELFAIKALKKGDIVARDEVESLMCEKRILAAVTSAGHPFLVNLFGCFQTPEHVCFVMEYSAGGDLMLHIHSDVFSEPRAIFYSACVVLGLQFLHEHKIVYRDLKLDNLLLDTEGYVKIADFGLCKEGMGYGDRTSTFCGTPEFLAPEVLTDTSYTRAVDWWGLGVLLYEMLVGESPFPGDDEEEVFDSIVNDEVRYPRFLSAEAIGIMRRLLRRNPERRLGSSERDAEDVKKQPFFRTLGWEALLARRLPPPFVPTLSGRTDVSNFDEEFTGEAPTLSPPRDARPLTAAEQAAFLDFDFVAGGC
T35 sequence (Q9C098 whole entry): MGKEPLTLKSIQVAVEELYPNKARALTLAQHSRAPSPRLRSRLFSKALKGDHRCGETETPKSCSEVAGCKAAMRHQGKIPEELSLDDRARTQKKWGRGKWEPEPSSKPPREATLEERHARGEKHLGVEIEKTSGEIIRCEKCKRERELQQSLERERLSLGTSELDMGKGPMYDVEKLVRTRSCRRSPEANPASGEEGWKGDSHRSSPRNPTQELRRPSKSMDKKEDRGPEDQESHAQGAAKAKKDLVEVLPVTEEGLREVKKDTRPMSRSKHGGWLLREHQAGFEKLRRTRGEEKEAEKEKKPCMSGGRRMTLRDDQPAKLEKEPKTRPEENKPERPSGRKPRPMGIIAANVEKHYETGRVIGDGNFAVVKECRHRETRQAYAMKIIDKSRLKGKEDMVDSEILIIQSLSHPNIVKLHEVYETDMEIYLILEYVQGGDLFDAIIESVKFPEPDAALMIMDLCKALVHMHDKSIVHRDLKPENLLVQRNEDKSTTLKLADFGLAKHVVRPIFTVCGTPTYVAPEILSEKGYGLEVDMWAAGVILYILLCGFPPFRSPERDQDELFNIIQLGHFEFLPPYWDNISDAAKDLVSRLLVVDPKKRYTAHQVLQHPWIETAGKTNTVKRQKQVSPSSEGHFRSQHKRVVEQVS
T6 sequence (P51451 whole entry): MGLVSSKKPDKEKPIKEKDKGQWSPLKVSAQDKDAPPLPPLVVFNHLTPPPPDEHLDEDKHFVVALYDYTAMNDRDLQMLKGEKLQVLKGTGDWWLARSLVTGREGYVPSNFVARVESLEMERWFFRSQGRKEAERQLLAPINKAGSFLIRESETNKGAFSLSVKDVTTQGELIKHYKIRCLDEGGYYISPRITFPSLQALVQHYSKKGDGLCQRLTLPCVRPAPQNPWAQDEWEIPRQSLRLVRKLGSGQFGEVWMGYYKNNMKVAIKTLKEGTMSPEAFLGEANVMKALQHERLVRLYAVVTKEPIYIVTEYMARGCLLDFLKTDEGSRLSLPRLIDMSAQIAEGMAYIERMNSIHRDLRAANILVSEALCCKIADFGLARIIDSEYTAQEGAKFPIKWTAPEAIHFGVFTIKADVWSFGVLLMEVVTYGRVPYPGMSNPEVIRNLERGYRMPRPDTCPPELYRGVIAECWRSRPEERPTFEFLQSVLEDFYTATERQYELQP
T27 sequence (P78356 whole entry): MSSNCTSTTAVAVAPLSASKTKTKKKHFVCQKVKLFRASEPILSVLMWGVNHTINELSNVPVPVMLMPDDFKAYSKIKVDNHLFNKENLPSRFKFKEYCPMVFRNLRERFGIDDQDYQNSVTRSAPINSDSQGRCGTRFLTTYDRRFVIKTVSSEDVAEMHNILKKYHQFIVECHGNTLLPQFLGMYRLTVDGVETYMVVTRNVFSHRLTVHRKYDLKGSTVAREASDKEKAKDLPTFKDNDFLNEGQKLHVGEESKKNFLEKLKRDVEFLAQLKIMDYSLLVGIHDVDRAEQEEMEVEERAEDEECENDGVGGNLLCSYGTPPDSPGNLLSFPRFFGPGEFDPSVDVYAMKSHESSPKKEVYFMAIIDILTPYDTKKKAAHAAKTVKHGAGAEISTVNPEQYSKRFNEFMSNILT
T16 sequence (P11802 whole entry): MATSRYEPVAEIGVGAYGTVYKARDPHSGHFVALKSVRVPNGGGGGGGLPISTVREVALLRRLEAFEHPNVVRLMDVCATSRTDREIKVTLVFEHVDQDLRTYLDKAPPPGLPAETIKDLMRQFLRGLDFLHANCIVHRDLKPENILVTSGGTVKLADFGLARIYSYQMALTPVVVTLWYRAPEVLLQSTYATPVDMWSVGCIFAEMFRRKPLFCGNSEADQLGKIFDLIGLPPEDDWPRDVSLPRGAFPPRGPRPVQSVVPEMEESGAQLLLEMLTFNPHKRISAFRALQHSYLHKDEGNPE

## O=C1Nc2c(cc([N+](=O)[O-])c3c2CCCC3)C1=NO [Compound 5d, 3-(Hydroxyimino)-5-nitro-1,3,6,7,8,9-hexahydro-2H-benzo[g]indol-2-one]
MERTK
  inhibition at 10 µM: 4%
LRRK2 (G2019S)
  inhibition at 10 µM: 89%
EGFR (T790M)
  inhibition at 10 µM: 0%
RIPK1
  inhibition at 10 µM: 0%
GRK7
  inhibition at 10 µM: 43%
BLK
  inhibition at 10 µM: 23%
MET
  inhibition at 10 µM: 63%
CAMK1G
  inhibition at 10 µM: 29%
LATS2
  inhibition at 10 µM: 28%
PRKD2
  inhibition at 10 µM: 77%
BRAF (V600E)
  inhibition at 10 µM: 23%
YSK1
  inhibition at 10 µM: 10%
CDC2L1
  inhibition at 10 µM: 0%
PKN1
  inhibition at 10 µM: 9%
PKAC-α
  inhibition at 10 µM: 0%
CDK4
  inhibition at 10 µM: 7%
INSR
  inhibition at 10 µM: 1%
PRKCD
  inhibition at 10 µM: 10%
DRAK2
  inhibition at 10 µM: 78%
[1]
  inhibition at 10 µM: 36%
EGFR (L858R, T790M)
  inhibition at 10 µM: 2%
MAP4K3
  inhibition at 10 µM: 11%
CIT
  inhibition at 10 µM: 92.8%
PRKD3
  inhibition at 10 µM: 77%
MELK
  inhibition at 10 µM: 56%
TAOK1
  inhibition at 10 µM: 62%
PIP5K2B
  inhibition at 10 µM: 64%
RIPK5
  inhibition at 10 µM: 17%
PFTK1
  inhibition at 10 µM: 0%
[2]
  inhibition at 10 µM: 0%
FLT4
  inhibition at 10 µM: 8%
MAP4K4
  inhibition at 10 µM: 47%
STK39
  inhibition at 10 µM: 53%
AXL
  inhibition at 10 µM: 17%
DCAMKL3
  inhibition at 10 µM: 10%
JAK3 (JH1domain-cat.)
  inhibition at 10 µM: 49%
CSF1R-autoinhibited
  inhibition at 10 µM: 37%
TIE1
  inhibition at 10 µM: 12%
